Source: paper PMC8816498, “A Customized Screening Tool Approach for the Development of a Self-Nanoemulsifying Drug Delivery System (SNEDDS)” (AAPS PharmSciTech, 2021)

Experiments:
[1] = Saturation solubility of the drug in individual excipients; format: physicochemical; conditions: 37 °C, 24 h
Method: The saturation solubility of each drug in each of the individual excipients was investigated in triplicate by the following procedure: first, drug and excipients were blended in 2-ml safe lock test tubes ([17], [23], [26]). After short, intense vortex mixing, the mixtures were agitated at 1000 rpm for 24 h at 37 °C under light protection using a ThermoMixer® C (Eppendorf AG, Hamburg, Germany) to achieve an equilibrium state ([7], [12], [16], [17], [23], [26], [27]). […] After centrifugation at 37 °C, a defined mass (50 mg) of the supernatant was withdrawn and transferred to a 25-ml volumetric flask, and the sample was diluted with methanol to a total volume of 25.0 ml. Finally, a sample of 1 ml was analyzed using one of the previously described drug-specific HPLC methods.

[2] = media of pH 1, 4.5 and 6.8; 120 min; at the time of manufacture
Method: All experiments were performed in triplicate with 25 mg of the specific drug, or an equivalent amount of drug-loaded SNEDDS (300 µl) using USP apparatus II (DT 800 LH, ERWEKA GmbH, Langen, Germany). Dissolution was studied in 0.1 N hydrochloric acid (pH 1.0), acetate buffer USP (pH 4.5), and phosphate buffer USP (pH 6.8). All experiments were performed in a media volume of 500 ml at 37 ± 0.5 °C using a paddle speed of 100 rpm. All samples were withdrawn automatically using a fraction collector, equipped with cannula filters of 10 µm pore size and manually diluted 1:1 (v/v) with acetonitrile before HPLC analysis.

| SMILES | Solubility in Miglyol 812 [1] | Solubility in co-solvents ([1]; Tetra EG, Transcutol HP, Carbowax PEG 400) | Dissolution behaviour [2] |
| --- | --- | --- | --- |
| Cc1ccc(-c2cc(C(F)(F)F)nn2-c2ccc(S(N)(=O)=O)cc2)cc1 [Celecoxib] | exceptionally low solubility | high solubility | poor solubility |
| CC(C)OC(=O)C(C)(C)Oc1ccc(C(=O)c2ccc(Cl)cc2)cc1 [Fenofibrate] |  |  | poor solubility |
